The values below come from patent US20240287138A1, “CYCLIC PEPTIDES FOR INHIBITING TNF RECEPTOR 1 ACTIVITY” (Merck Sharp & Dohme LLC, priority 2023, published 2024).

Where two headings read alike, the source gives them in different places. Numbered stars: 1 amine (or outer) side, 2 acyl side, 3 side chain; on linkers, the order of the positions; unused ones are H or OH. Square brackets hold non-standard residues; d marks the D form. Peptide text beside a SMILES is read from it. * marks the point of attachment. Trp(βS-Me,7-OMe) = COc1cccc2c([C@H](C)[C@H](N)C(=O)O)c[nH]c12; Trp(1-CH2COOH) = N[C@@H](Cc1cn(CC(=O)O)c2ccccc12)C(=O)O; Phe(4-SO2NH2) = N[C@@H](Cc1ccc(S(N)(=O)=O)cc1)C(=O)O; dPro(trans-4-NMe2) = CN(C)[C@@H]1CN[C@@H](C(=O)O)C1; Trp(7-CN) = N#Cc1cccc2c(C[C@H](N)C(=O)O)c[nH]c12; X20 = O=C1NCc2ccc(C[C@H](N[*:1])C(=O)[*:2])cc21; Phe(3-CONH2) = NC(=O)c1cccc(C[C@H](N)C(=O)O)c1; Phe(4-CONH2) = NC(=O)c1ccc(C[C@H](N)C(=O)O)cc1; Phe(4-COOH) = N[C@@H](Cc1ccc(C(=O)O)cc1)C(=O)O; dPro(trans-4-F) = O=C(O)[C@H]1C[C@H](F)CN1; dPro(4S-NH2) = N[C@@H]1CN[C@@H](C(=O)O)C1; Pip(5R-OH) = O=C(O)[C@@H]1CC[C@@H](O)CN1; X1 = O=C([C@@H]1CC[C@H](N[*:1])C1)[*:2]; 4Pal = N[C@@H](Cc1ccncc1)C(=O)O; dHyp = O=C(O)[C@H]1C[C@H](O)CN1; αMeS = C[C@](N)(CO)C(=O)O; Carboxymethyl = O=C(O)C*; Nle = CCCC[C@H](N)C(=O)O; Sar = CNCC(=O)O

Experiment [1] deals with T1, human TNFR1 extracellular domain (ECD) protein (Homo sapiens, UniProt P19438).
T1 construct: HRV 3C protease cleavage site (C); 6His (C, cleaved yes); made in house; host or cells: Sf21 insect cells (baculovirus), secreted
T1 sequence (P19438 30-211): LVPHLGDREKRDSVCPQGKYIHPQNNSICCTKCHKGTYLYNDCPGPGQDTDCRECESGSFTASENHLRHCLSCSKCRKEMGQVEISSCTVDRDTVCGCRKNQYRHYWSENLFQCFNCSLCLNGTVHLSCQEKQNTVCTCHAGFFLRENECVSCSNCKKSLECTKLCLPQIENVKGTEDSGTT
The experiment can be described thus: SPR binding affinity to captured human TNFR1 ECD. The procedure, abridged:
(§1)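 Peptide binding kinetics read by SPR in HEPES pH 7.4 running buffer with 2% DMSO, with TNFR2 ECD tested in parallel for off-target binding. Receptor ECDs, insect-cell expressed and biotinylated at C-terminal avi-tag, were captured via streptavidin. KA derived from association and dissociation rate constants.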
Background: In SPR one partner is held on a chip, and binding of the other changes the refractive index at the surface.

A further experiment concerns the target T2, human TNFR2 ECD protein (Homo sapiens, UniProt P20333).
T2 construct: HRV 3C protease cleavage site (C); 6His (C, cleaved yes); made in house; host or cells: Sf21 insect cells (baculovirus), secreted
T2 sequence (P20333 23-257): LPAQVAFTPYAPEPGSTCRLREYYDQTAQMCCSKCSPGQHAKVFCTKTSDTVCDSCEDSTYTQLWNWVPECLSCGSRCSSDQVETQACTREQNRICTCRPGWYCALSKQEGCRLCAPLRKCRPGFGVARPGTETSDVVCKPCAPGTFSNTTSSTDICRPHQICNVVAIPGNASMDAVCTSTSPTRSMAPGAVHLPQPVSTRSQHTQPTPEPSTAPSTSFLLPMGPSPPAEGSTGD
The experiment in a line: SPR off-target binding (selectivity) to human TNFR2 ECD. The procedure, abridged: as §1

For experiment [2], the target named is T3, TNFα-induced NF-κB signal transduction pathway (TNFR1 signaling) in THP-1 cells (Homo sapiens, UniProt P19438).
T3 sequence (P19438 30-455): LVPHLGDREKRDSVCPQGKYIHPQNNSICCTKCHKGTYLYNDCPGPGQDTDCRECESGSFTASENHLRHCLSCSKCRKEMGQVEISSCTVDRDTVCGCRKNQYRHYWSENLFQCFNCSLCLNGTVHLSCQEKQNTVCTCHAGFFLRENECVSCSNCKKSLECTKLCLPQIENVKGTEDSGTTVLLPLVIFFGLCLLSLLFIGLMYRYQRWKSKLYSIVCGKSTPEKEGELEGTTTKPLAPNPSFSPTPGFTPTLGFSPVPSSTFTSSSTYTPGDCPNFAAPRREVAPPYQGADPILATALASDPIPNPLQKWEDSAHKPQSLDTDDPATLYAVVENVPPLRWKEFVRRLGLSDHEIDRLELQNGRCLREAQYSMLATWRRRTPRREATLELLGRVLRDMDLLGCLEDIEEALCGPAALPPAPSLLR
The experiment can be described thus: THP-1 Lucia NF-κB reporter cell assay, inhibition of TNFα-induced NF-κB signaling. In kind it is cell-based. The following applies: THP-1 NF-κB Lucia reporter cells, 10 ng/mL TNFα, 16-18 h, secreted luciferase; read-out: THP-1 IC50. The procedure, abridged:
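IC50 from a 4-parameter logistic fit of secreted luciferase luminescence (QUANTI-Luc), normalised to min/max controls. Reporter THP-1 cells were exposed to peptides for 1 h at 37 °C before 10 ng/mL TNFα (final) was added overnight (16–18 h).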

Setting [3] is: biotinylated human TNFR1 ECD on streptavidin chip, from kon and koff, read-out: SPR hTNFR1 KD.
Setting [4] is: biotinylated human TNFR2 ECD on streptavidin chip, read-out: SPR hTNFR2 KD.

What is called Kd is the equilibrium constant for the complex coming apart. The IC50 is the point on the concentration scale where inhibition reaches its midpoint. As to `CCCC[C@@H]1NC(=O)[C@@H]2CC[C@@H](C2)NC(=O)[C@H]([C@@H](C)c2c[nH]c3c(OC)cccc23)NC(=O)CN(C)C(=O)[C@H](Cc2ccc(C(N)=O)cc2)NC(=O)[C@H](Cc2ccc(S(N)(=O)=O)cc2)NC(=O)[C@](C)(CO)NC(=O)[C@H](Cc2c[nH]c3c(C#N)cccc23)NC(=O)[C@H](Cc2ccc(C(=O)O)cc2)NC(=O)[C@H](CC(N)=O)NC(=O)[C@H]2C[C@H](N(C)C)CN2C(=O)[C@H](Cc2cn(CC(=O)O)c3ccccc23)NC(=O)[C@@H]2CC[C@@H](O)CN2C(=O)[C@H](Cc2ccncc2)NC1=O` [SEQ ID NO. 2] (cyclo([4Pal][Pip(5R-OH)][Trp(1-CH2COOH)][dPro(trans-4-NMe2)]N[Phe(4-COOH)][Trp(7-CN)][αMeS][Phe(4-SO2NH2)][Phe(4-CONH2)][Sar][Trp(βS-Me,7-OMe)][X1][Nle])), the dissociation constant Kd is 0.07 nM in experiment [1] and more than 1000 nM on human TNFR2 ECD protein. Also, the IC50 in experiment [2] worked out at 0.5 nM.
For `CCCC[C@@H]1NC(=O)[C@@H]2CC[C@@H](C2)NC(=O)[C@H]([C@@H](C)c2c[nH]c3c(OC)cccc23)NC(=O)CN(C)C(=O)[C@H](Cc2ccc(OCC(=O)O)cc2)NC(=O)[C@H](Cc2ccc(S(N)(=O)=O)cc2)NC(=O)[C@](C)(CO)NC(=O)[C@H](Cc2c[nH]c3c(C#N)cccc23)NC(=O)[C@H](Cc2ccc(OCC(=O)O)cc2)NC(=O)[C@H](CC(N)=O)NC(=O)[C@H]2C[C@H](N)CN2C(=O)[C@H](Cc2cn(CC(=O)O)c3ccccc23)NC(=O)[C@@H]2CC[C@@H](O)CN2C(=O)[C@H](Cc2ccncc2)NC1=O` [SEQ ID NO. 18] (cyclo([4Pal][Pip(5R-OH)][Trp(1-CH2COOH)][dPro(4S-NH2)]NY(Carboxymethyl)[Trp(7-CN)][αMeS][Phe(4-SO2NH2)]Y(Carboxymethyl)[Sar][Trp(βS-Me,7-OMe)][X1][Nle])), the Kd in experiment [1] (setting [3]) is 0.05 nM; at human TNFR2 ECD protein (setting [4]) it was more than 1000 nM. Besides, the half-inhibitory concentration (IC50) in experiment [2] was determined as 0.6 nM.
For `CCCC[C@@H]1NC(=O)[C@@H]2CC[C@@H](C2)NC(=O)[C@H]([C@@H](C)c2c[nH]c3c(OC)cccc23)NC(=O)CN(C)C(=O)[C@H](Cc2cccc(C(N)=O)c2)NC(=O)[C@H](Cc2ccc(C(N)=O)cc2)NC(=O)[C@](C)(CO)NC(=O)[C@H](Cc2c[nH]c3c(C#N)cccc23)NC(=O)[C@H](Cc2ccc(C(=O)O)cc2)NC(=O)[C@H](CC(N)=O)NC(=O)[C@H]2C[C@H](F)CN2C(=O)[C@H](Cc2c[nH]c3ccccc23)NC(=O)[C@@H]2CC[C@@H](O)CN2C(=O)[C@H](Cc2ccncc2)NC1=O` [SEQ ID NO. 21] (cyclo([4Pal][Pip(5R-OH)]W[dPro(trans-4-F)]N[Phe(4-COOH)][Trp(7-CN)][αMeS][Phe(4-CONH2)][Phe(3-CONH2)][Sar][Trp(βS-Me,7-OMe)][X1][Nle])), the Kd in experiment [1] is 0.03 nM; on human TNFR2 ECD protein it was more than 1000 nM. For the same molecule, in experiment [2], the IC50 came out at 0.9 nM.
Turning to `CCCC[C@@H]1NC(=O)[C@@H]2CC[C@@H](C2)NC(=O)[C@H]([C@@H](C)c2c[nH]c3c(OC)cccc23)NC(=O)CN(C)C(=O)[C@H](Cc2ccc(C(N)=O)cc2)NC(=O)[C@H](Cc2ccc(C(N)=O)cc2)NC(=O)[C@](C)(CO)NC(=O)[C@H](Cc2c[nH]c3c(C#N)cccc23)NC(=O)[C@H](Cc2ccc3c(c2)C(=O)NC3)NC(=O)[C@H](CC(N)=O)NC(=O)[C@H]2C[C@H](OCC(=O)O)CN2C(=O)[C@H](Cc2cn(CC(=O)O)c3ccccc23)NC(=O)[C@@H]2CC[C@@H](O)CN2C(=O)[C@H](Cc2ccncc2)NC1=O` [SEQ ID NO. 22] (cyclo([4Pal][Pip(5R-OH)][Trp(1-CH2COOH)][dHyp](Carboxymethyl)N[X20][Trp(7-CN)][αMeS][Phe(4-CONH2)][Phe(4-CONH2)][Sar][Trp(βS-Me,7-OMe)][X1][Nle])), the results for the Kd (in experiment [1] (setting [3]); on human TNFR2 ECD protein (setting [4])) were 0.09 nM and more than 1000 nM, respectively. Besides, in experiment [2], the IC50 came out at 0.6 nM.
